We go through three compounds from ChEMBL document CHEMBL3751691, “A Journey around the Medicinal Chemistry of Hepatitis C Virus Inhibitors Targeting NS4B: From Target to Preclinical Drug Candidates” (J Med Chem, 2016).

Data set [1] deals with Hepatitis C virus. The experiment in a line: Antiviral activity against HCV genotype 1b after 3 days by luciferase reporter assay. To be noted: 72 h. It is filed as functional, organism-based, Hepacivirus hominis.
Data set [2] can be described thus: Binding affinity to […] by fluorescence assay. Set-up: species or system Hepacivirus hominis.
Data set [3] concerns Hepatitis C virus. Nature of the data set: Antiviral activity against HCV infected in human HuH7 cells assessed as inhibition of viral replication after 72 hrs by ELISA-based viral replicon assay. It is filed as functional, organism-based, Hepacivirus hominis. To be noted: Huh-7, 72 h. A general note: An ELISA detects its analyte on a solid surface through an enzyme-linked reagent.

Data set [4] has as its system Hepatitis C virus. Nature of the data set: Antiviral activity against HCV genotype 1a infected in Huh7 cells assessed as inhibition of viral replication after 48 hrs by luciferase reporter-based viral replicon assay. It is filed as functional, organism-based, Hepacivirus hominis. To be noted: subtype 1a, Huh-7, 48 h. Background: A reporter such as luciferase makes a cellular process visible.

Data set [5] relates to Hepatitis C virus. Nature of the data set: Antiviral activity against HCV genotype 1b infected in Huh7 cells assessed as inhibition of viral replication after 48 hrs by luciferase reporter-based viral replicon assay. It is filed as functional, organism-based, Hepacivirus hominis. To be noted: Huh-7, 48 h.
Data set [6] is described as follows: Cytotoxicity against human HuH7 cells infected with HCV after 72 hrs by crystal violet-based assay. It is filed as cell-based. To be noted: huh-7, 72 h.
The nature of data set [7]: Cytotoxicity against human HuH7 cells infected with HCV genotype 1b after 48 hrs by WST-1 assay. It is filed as cell-based, Huh-7. For orientation: Formazan colour is commonly taken as a measure of viable cells.
Data set [8] in a line: Inhibition of HCV GST-tagged recombinant NS3/4A protease expressed in Escherichia coli by microfluidic affinity assay. Further details: species or system Hepacivirus hominis.
Data set [9] relates to Hepatitis C virus. The experiment in a line: Antiviral activity against HCV genotype 2a infected in Huh7.5 cells assessed as inhibition of viral replication at 72 hrs by luciferase reporter-based viral replicon assay. It is filed as functional, organism-based, Hepacivirus hominis. To be noted: Huh7.5, 72 h.
The test system of data set [10] is Hepatitis C virus. The experiment in a line: Antiviral activity against HCV genotype 1b infected in Huh7.5 cells assessed as inhibition of viral replication at 72 hrs by luciferase reporter-based viral replicon assay. It is filed as functional, organism-based, Hepacivirus hominis. To be noted: Huh7.5, 72 h.

Some results are limits rather than exact numbers.

As usually defined, the EC50 is the concentration that produces a half-maximal response. `Cc1cnc(C(=O)N[C@H]2CCCCC/C=C\[C@@H]3C[C@@]3(C(=O)NS(=O)(=O)C3CC3)NC(=O)[C@@H]3C[C@@H](Oc4nc5ccccc5c5ccccc45)CN3C2=O)cn1`: the EC50 with Hepatitis C virus [1] was 0.00021 µM.
What is called Kd is the constant that tells how readily two partners part at equilibrium. The CC50 is the concentration giving 50% cytotoxicity. A lower CC50 goes with greater toxicity to the cells. In [2], `O=C(NCc1cccs1)c1cc2nc(-c3ccco3)cc(C(F)(F)Cl)n2n1` [ANGUIZOLE] returned a Kd of 0.662 µM. Further, the EC50 with Hepatitis C virus [3] was found to be 0.63 µM; in the data set on Hepatitis C virus [4] it was 0.56 µM; with Hepatitis C virus [5] it was 0.31 µM. In [6], the CC75 is > 100 µM. Further, in data set [7], the CC50 at 48 h is > 50 µM.
A word on the IC50: it is the concentration that gives 50% inhibition. In the case of `Clc1ccc(Cn2c(CN3CCCC3)nc3ccccc32)cc1` [CLEMIZOLE], the IC50 in data set [8] came out at 0.024 µM. Further, the results for the EC50 in the data set with Hepatitis C virus [9] and with Hepatitis C virus [10] were 8 µM and 23 µM, respectively.
